Laboratory results reported in patent US9040527B2, “Pyrimidinediamine kinase inhibitors” (Rigel Pharmaceuticals, Inc., priority 2008, dated 2015).
Structures can show the parent of a compound that is named as a salt. Where two headings read alike, the source gives them in different places.

Target: PLK1 (Homo sapiens, UniProt P53350)
Assay: In vitro PLK1 ELISA assay (biochemical)
Set-up: purchased Cell Signalling 7728
Procedure: Inhibition of PLK1 was measured by quantifying phosphorylation of PLK1 substrates using chemiluminescent and fluorogenic probes. The protocols for these assays are provided below.
In Vitro PLK1 ELISA Assay
1. Preparation of Assay Plates.
Costar 96-well black or white solid flat high binding plates (Fisher Scientific, Catalog No. 07-200-591) were coated with Neutravidin (Pierce, Catalog No. 31000) using the following protocol. A 0.01 mg/mL solution of Neutravidin in 1× Phosphate Buffered Saline (“PBS”, Cellgro/Mediatech, Catalog No. 21-040-CV) was added to each well (100 μL/well) and was incubated for 18-24 hours at 4° C. The plates were then washed with 1× Phosphate Buffer Saline—Tween (“PBST”, Calbiochem, Catalog No. 524653) buffer using a plate washer. The plates were treated with bovine serum albumin (“BSA”, Sigma, Catalog No. A7906) to block non-specific binding sites, by adding a 2% BSA solution in 1×PBST buffer to each well (100 μL/well) and incubating the plates for 1 hour at room temperature. The plates were then washed with 1×PBST buffer using a plate washer.
2. PLK1-Catalyzed Phosphorylation Reaction
An aqueous buffer solution A having the following composition was prepared:
20 mM HEPES (Cellgro/Mediatech, Catalog No. 25-060Ci), pH 7.2;
5 mM MgCl2 (Sigma, Catalog No. M2393);
2 mM MnCl2.4H2O (EM Biosciences, Catalog No. MX0185-2);
1 mM Dithiothreitol (“DTT”, Fluka, Catalog No. B4184).
Next, the substrate solution B was prepared by adding 2.6 μL of 10 mM ATP (Sigma, Catalog No. A7699) and 6.4 μL of the 1 mM PLK1 substrate, CHK2-derived peptide Biotin-SSLETVSTQELYSIP (custom synthesized at Anaspec) SEQ ID: No. 1, to 4691 μL of the buffer solution A. The concentration of the ATP in solution B is 5.44 μM (1.36×); the concentration of the PLK1 substrate in solution B is 1.36 μM (1.36×).
Compound solutions C of varying concentrations for each compound were prepared by dissolving each compound in dimethylsulfoxide (DMSO, Sigma, Catalog No. D2650) to varying concentrations, followed by adding 2 μL of each solution to 38 μL of the buffer solution A, thereby forming 10× compound solutions in 5% DMSO.
A PLK1 solution D was prepared by adding 8.4 μL of 100 μg/mL PLK1 (Cell Signalling, Catalog No. 7728) to 1392 μL of the buffer solution A, thereby forming 0.6 μg/mL (6×) PLK1 solution.
The aqueous 1.36× substrate solution B was added to each well (44 μL/well) resulting in binding of the substrate to the plate via biotin/neutravidin interaction. Then 10× compound solutions C for each tested compound at each tested concentration were added to each well (6 μL/well). Next, 6×PLK1 solution D was added to each well (10 μL/well).
The final concentrations of tested compounds in each well were 10 μM, 3.3 μM, 1.1 μM, 0.36 μM, 0.12 μM, 0.04 μM, 0.014 μM, and 0.005 μM.
The obtained reaction mixtures were incubated in the wells for 45 minutes at room temperature, allowing PLK1-catalyzed phosphorylation of the substrate to proceed. The plates were then washed with 1×PBST solution using a plate washer, such that the bound phosphorylated or unphosphorylated substrate remains attached to the wells upon washing.
The washed plates were developed by treating the plates with a primary antibody that is specific for the phosphorylated substrate, followed by treatment with a secondary antibody that is specific for the primary antibody, and that is capable of catalyzing a reaction that results in a chemiluminescent readout. The chemiluminescent readout was used to quantify the substrate phosphorylation, and, consequently, to determine IC50 values for PLK1 inhibition, and was measured using a luminometer (Perkin Elmer/Wallac plate reader). The plate development protocol is described below.
A mixed antibody solution E was prepared by adding 1 μL of the primary antibody, rabbit p-CHK2(T68) (Rockland, Catalog No. 401280), and 1 μL of the secondary antibody, HRP-goat anti-rabbit IgG (Jackson Immunoresearch Catalog No. 111-035-003) to 10000 μL of 0.1% BSA in 1×PBST buffer. […]

[1] = read-out: IC50 in biochemical ELISA assay (less than 0.01 μM)
[2] = ELISA, CHK2-derived peptide substrate, read-out: PLK1 IC50 (μM) biochemical assay
[3] = read-out: IC50 in biochemical in vitro PLK1 ELISA assay (less than 10 μM)

PLK1, sequence (P53350 whole entry): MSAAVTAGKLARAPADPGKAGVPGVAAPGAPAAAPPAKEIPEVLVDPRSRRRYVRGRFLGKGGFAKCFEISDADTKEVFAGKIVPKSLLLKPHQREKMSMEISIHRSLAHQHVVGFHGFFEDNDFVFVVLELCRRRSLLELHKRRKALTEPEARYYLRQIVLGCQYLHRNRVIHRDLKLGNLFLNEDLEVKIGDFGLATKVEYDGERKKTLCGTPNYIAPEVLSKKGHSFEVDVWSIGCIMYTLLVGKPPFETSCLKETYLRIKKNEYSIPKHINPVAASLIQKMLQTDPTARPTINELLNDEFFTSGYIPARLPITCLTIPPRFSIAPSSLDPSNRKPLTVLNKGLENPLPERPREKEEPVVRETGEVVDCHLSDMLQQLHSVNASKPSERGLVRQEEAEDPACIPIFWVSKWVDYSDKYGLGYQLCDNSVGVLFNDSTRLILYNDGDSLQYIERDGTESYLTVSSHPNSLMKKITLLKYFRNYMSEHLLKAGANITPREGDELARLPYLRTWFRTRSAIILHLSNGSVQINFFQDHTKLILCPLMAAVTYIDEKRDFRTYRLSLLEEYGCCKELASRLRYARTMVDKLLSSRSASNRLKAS

| Compound | IC50 [1] [µM] | IC50 [2] [µM] | IC50 [3] [µM] |
| --- | --- | --- | --- |
| CN1CCN(c2cccc(Nc3ncc(F)c(Nc4ccc5c(n4)NC(=O)CO5)n3)c2)CC1 [compound 19, 6-(5-fluoro-2-(3-(4-methylpiperazin-1-yl)phenylamino)pyrimidin-4-ylamino)-2H-pyrido[3,2-b][1,4]oxazin-3(4H)-one hydrochloride] | < 0.01 |  |  |
| COC(=O)c1cnc(Nc2cccc(N3CCN(C)CC3)c2)nc1Nc1ccc2c(n1)NCCO2 [compound 11, methyl 4-(3,4-dihydro-2H-pyrido[3,2-b][1,4]oxazin-6-ylamino)-2-(3-(4-methylpiperazin-1-yl)phenylamino)pyrimidine-5-carboxylate] |  | ≥ 10 |  |
| CN1CCN(c2cccc(Nc3ncc(F)c(N(CC4CCC4)c4ccc5c(n4)NCCO5)n3)c2)CC1 [compound 4, N4-(cyclobutylmethyl)-N4-(3,4-dihydro-2H-pyrido[3,2-b][1,4]oxazin-6-yl)-5-fluoro-N2-(3-(4-methylpiperazin-1-yl)phenyl)pyrimidine-2,4-diamine] |  | 5 to 10 | < 10 |
| CN1CCN(c2cc(Nc3ncc(F)c(Nc4ccc5c(n4)NCCO5)n3)cc(OCC3CCC3)c2)CC1 [compound 16, N2-(3-(cyclobutylmethoxy)-5-(4-methylpiperazin-1-yl)phenyl)-N4-(3,4-dihydro-2H-pyrido[3,2-b][1,4]oxazin-6-yl)-5-fluoropyrimidine-2,4-diamine] |  | < 0.5 | < 10 |
| COc1cc(Nc2ncc(F)c(Nc3ccc4c(n3)NCCO4)n2)cc(N2CCN(C)CC2)c1 [compound 5, N4-(3,4-dihydro-2H-pyrido[3,2-b][1,4]oxazin-6-yl)-5-fluoro-N2-(3-methoxy-5-(4-methylpiperazin-1-yl)phenyl)pyrimidine-2,4-diamine] | < 0.01 | < 0.5 | < 10 |
| CN1CCN(c2cccc(Nc3ncc(C(F)(F)F)c(Nc4ccc5c(n4)NC(=O)CO5)n3)c2)CC1 [compound 6, 6-(2-(3-(4-methylpiperazin-1-yl)phenylamino)-5-(trifluoro-methyl)pyrimidin-4-ylamino)-2H-pyrido[3,2-b][1,4]oxazin-3(4H)-one] | < 0.01 | < 0.5 | < 10 |
| Cc1cc(Nc2ncc(F)c(Nc3ccc4c(n3)N(CC3CC3)C(=O)CO4)n2)ccc1N1CCN(C)CC1 [compound 111, 4-(cyclopropylmethyl)-6-(5-fluoro-2-(3-methyl-4-(4-methylpiperazin-1-yl)phenylamino)pyrimidin-4-ylamino)-2H-pyrido[3,2-b][1,4]oxazin-3(4H)-one] |  | 0.5 to 5 | < 10 |
| CN1CCN(c2cccc(Nc3nccc(Nc4ccc5c(n4)NC(=O)CO5)n3)c2)CC1 [compound 13, 6-(2-(3-(4-methylpiperazin-1-yl)phenylamino)pyrimidin-4-ylamino)-2H-pyrido[3,2-b][1,4]oxazin-3(4H)-one] |  | ≥ 10 |  |
| CC(C)c1cc(Nc2ncc(F)c(Nc3ccc4c(n3)NCCO4)n2)ccc1N1CC2CC1CN2C (stereo not drawn) [compound 10, N4-(3,4-dihydro-2H-pyrido[3,2-b][1,4]oxazin-6-yl)-5-fluoro-N2-(3-isopropyl-4-(5-methyl-2,5-diazabicyclo[2.2.1]heptan-2-yl)phenyl)pyrimidine-2,4-diamine] |  | ≥ 10 |  |
| CN1CCN(c2cc(Nc3ncc(F)c(Nc4ccc5c(n4)NC(=O)CO5)n3)cc(OCC3CCC3)c2)CC1 [compound 14, 6-(2-(3-(cyclobutylmethoxy)-5-(4-methylpiperazin-1-yl)phenylamino)-5-fluoropyrimidin-4-ylamino)-2H-pyrido[3,2-b][1,4]oxazin-3(4H)-one] |  | ≥ 10 |  |
| CN1CCN(c2cccc(Nc3ncc(C(=O)O)c(Nc4ccc5c(n4)NCCO5)n3)c2)CC1 [compound 12, 4-(3,4-dihydro-2H-pyrido[3,2-b][1,4]oxazin-6-ylamino)-2-(3-(4-methyl-piperazin-1-yl)phenyl-amino)pyrimidine-5-carboxylic acid] |  | ≥ 10 |  |
| CC(C)c1cc(Nc2ncc(F)c(Nc3ccc4c(n3)NC(=O)CO4)n2)ccc1N1CC2CC1CN2C (stereo not drawn) [compound 8, 6-(5-fluoro-2-(3-isopropyl-4-(5-methyl-2,5-diazabicyclo[2.2.1]heptan-2-yl)phenylamino)pyrimidin-4-ylamino)-2H-pyrido[3,2-b][1,4]oxazin-3(4H)-one] |  | ≥ 10 |  |
| CN1CCN(c2cccc(Nc3ncc(F)c(N(CC4CCCCC4)c4ccc5c(n4)NCCO5)n3)c2)CC1 [compound 7, N4-(cyclohexylmethyl)-N4-(3,4-dihydro-2H-pyrido[3,2-b][1,4]oxazin-6-yl)-5-fluoro-N2-(3-(4-methylpiperazin-1-yl)phenyl)pyrimidine-2,4-diamine] |  | ≥ 10 |  |
| CN1CCN(c2cccc(Nc3ncc(F)c(N(c4ccc5c(n4)NCCO5)C4CCCCC4)n3)c2)CC1 [compound 9, N4-cyclohexyl-N4-(3,4-dihydro-2H-pyrido[3,2-b][1,4]oxazin-6-yl)-5-fluoro-N2-(3-(4-methylpiperazin-1-yl)phenyl)pyrimidine-2,4-diamine] |  | ≥ 10 |  |
| CN1CCN(c2cccc(Nc3ncc(F)c(N(c4ccc5c(n4)NCCO5)C4CCC4)n3)c2)CC1 [compound 15, N4-cyclobutyl-N4-(3,4-dihydro-2H-pyrido[3,2-b][1,4]oxazin-6-yl)-5-fluoro-N2-(3-(4-methylpiperazin-1-yl)phenyl)pyrimidine-2,4-diamine] |  | 0.5 to 5 | < 10 |
| CN1CC2CC1CN2c1ccc(Nc2ncc(F)c(Nc3ccc4c(n3)NCCO4)n2)cc1C(F)(F)F (stereo not drawn) [compound 57, N4-(3,4-dihydro-2H-pyrido[3,2-b][1,4]oxazin-6-yl)-5-fluoro-N2-(4-(5-methyl-2,5-diazabicyclo[2.2.1]heptan-2-yl)-3-(trifluoro-methyl)phenyl)pyrimidine-2,4-diamine] |  | ≥ 10 |  |
| COc1cc(Nc2ncc(F)c(Nc3ccc4c(n3)NC(=O)CO4)n2)cc(N2CCN(C)CC2)c1 [compound 3, 6-(5-fluoro-2-(3-methoxy-5-(4-methylpiperazin-1-yl)phenylamino)pyrimidin-4-ylamino)-2H-pyrido[3,2-b][1,4]oxazin-3(4H)-one] |  | < 0.5 | < 10 |
| CN1CCN(c2cccc(Nc3ncc(F)c(Nc4ccc5c(n4)NCCO5)n3)c2)CC1 [compound 168, N4-(3,4-dihydro-2H-pyrido[3,2-b][1,4]oxazin-6-yl)-5-fluoro-N2-(3-(4-methylpiperazin-1-yl)phenyl)pyrimidine-2,4-diamine p-toluene sulfonic acid salt] | < 0.01 |  |  |
